These compounds were tested on Glucokinase known as hexokinase IV (human GK isoform 1, pancreas form and human GK isoform 2, liver form) (assay: Glucokinase enzymatic activity assay (G6PDH-coupled, NADH absorbance at 340 nm)). Conditions: 5 mM glucose, 1 mM ATP, 37 nM GK, 10 min at room temperature.
Assay type: biochemical
Outline: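 His-tagged human GK isoform 1 (pancreas) or 2 (liver), E. coli-expressed and Ni-purified, 37 nM, with 5 mM glucose, 1 mM ATP, 1 mM NAD and G6PDH in 25 mM Hepes/KCl, 2 mM MgCl2, 1 mM DTT. Ran 10 min at room temperature, read as NADH at 340 nm. AC1.5 is the compound concentration giving 1.5-fold activity.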

SMILES	AC1.5 (the compound concentration at which the enzymatic activity is increased by 1.5 times) [nM]
CNC(=O)C[C@@H]1CSC(c2cc3cc(Cl)cc(NC4CCOCC4)c3[nH]2)=N1 [Example 82, 2-{(R)-2-[5-chloro-7-(tetrahydro-pyran-4-ylamino)-1H-indol-2-yl]-4,5-dihydro-thiazol-4-yl}-N-methyl-acetamide]	22
O=C(O)C[C@@H]1CSC(c2cc3cc(Cl)cc(NC4CCOCC4)c3[nH]2)=N1 [Example 31, {(R)-2-[5-chloro-7-(tetrahydro-pyran-4-ylamino)-1H-indol-2-yl]-4,5-dihydro-thiazol-4-yl}-acetic acid]	16
COc1cc(NC2CCCC2)c2[nH]c(C3=N[C@H](CC(=O)O)CS3)cc2c1 [Example 48, [(R)-2-(7-cyclopentylamino-5-methoxy-1H-indol-2-yl)-4,5-dihydro-thiazol-4-yl]-acetic acid]	9
CN(C)C(=O)C[C@@H]1CSC(c2cc3cc(Cl)cc(NC4CCCC4)c3[nH]2)=N1 [Example 77, 2-[(R)-2-(5-chloro-7-cyclopentylamino-1H-indol-2-yl)-4,5-dihydro-thiazol-4-yl]-N,N-dimethyl-acetamide]	27
CCCOc1cc(NC2CCCC2)c2[nH]c(C3=N[C@H](CC(=O)O)CS3)cc2c1 [Example 53, [(R)-2-(7-cyclopentylamino-5-propoxy-1H-indol-2-yl)-4,5-dihydro-thiazol-4-yl]-acetic acid]	97
O=C(C[C@@H]1CSC(c2cc3cc(Cl)cc(NC4CCCC4)c3[nH]2)=N1)NCCN1CCOCC1 [Example 74, 2-[(R)-2-(5-chloro-7-cyclopentylamino-1H-indol-2-yl)-4,5-dihydro-thiazol-4-yl]-N-(2-morpholin-4-yl-ethyl)-acetamide]	14
COC(=O)C[C@@H]1CSC(c2cc3cc(Cl)cc(NC4CCCC4)c3[nH]2)=N1 [Example 26, [(R)-2-(5-chloro-7-cyclopentylamino-1H-indol-2-yl)-4,5-dihydro-thiazol-4-yl]acetic acid methyl ester]	7
O=C(C[C@@H]1CSC(c2cc3cccc(NC4CCOCC4)c3[nH]2)=N1)N1CCOCC1 [Example 93, 1-morpholin-4-yl-2-{(R)-2-[7-(tetrahydro-pyran-4-ylamino)-1H-indol-2-yl]-4,5-dihydro-thiazol-4-yl}-ethanone]	239
OCC[C@@H]1CSC(c2cc3cc(Br)cc(NC4CCCC4)c3[nH]2)=N1 [Example 34, 2-[(R)-2-(5-bromo-7-cyclopentylamino-1H-indol-2-yl)-4,5-dihydro-1,3-thiazol-4-yl]-ethanol]	11
OCC[C@@H]1CSC(c2cc3cccc(NC4CCOCC4)c3[nH]2)=N1 [Example 46, 2-{(R)-2-[7-(tetrahydro-pyran-4-ylamino)-1H-indol-2-yl]-4,5-dihydro-thiazol-4-yl}-ethanol]	96
COC(=O)C[C@@H]1CSC(c2cc3cc(OC)cc(NC4CCCC4)c3[nH]2)=N1 [Example 47, [(R)-2-(7-cyclopentylamino-5-methoxy-1H-indol-2-yl)-4,5-dihydro-thiazol-4-yl]-acetic acid methyl ester]	27
O=C(c1ccco1)N1CCN(CC[C@@H]2CSC(c3cc4cc(Cl)cc(NC5CCOCC5)c4[nH]3)=N2)CC1 [Example 121, [4-(2-{(R)-2-[5-chloro-7-(tetrahydro-pyran-4-ylamino)-1H-indol-2-yl]-4,5-dihydro-thiazol-4-yl}-ethyl)-piperazin-1-yl]-furan-2-yl-methanone]	40

Now from value to compound:

AC1.5 (the compound concentration at which the enzymatic activity is increased by 1.5 times) [nM]	SMILES
52	COc1cc(NC2CCOCC2)c2[nH]c(C3=N[C@H](CCN4CCN(C(=O)CO)CC4)CS3)cc2c1 [Example 147, 2-hydroxy-1-[4-(2-{(R)-2-[5-methoxy-7-(tetrahydro-pyran-4-ylamino)-1H-indol-2-yl]-4,5-dihydro-thiazol-4-yl}-ethyl)-piperazin-1-yl]ethanone]
21	CN(C)CC[C@@H]1CSC(c2cc3cc(F)cc(NC4CCCC4)c3[nH]2)=N1 [Example 127, cyclopentyl-{2-[(R)-4-(2-dimethylamino-ethyl)-4,5-dihydro-thiazol-2-yl]-5-fluoro-1H-indol-7-yl}-amine]
14	OCCC[C@@H]1CSC(c2cc3cc(Cl)cc(NC4CCOCC4)c3[nH]2)=N1 [Example 152, 3-{(R)-2-[5-chloro-7-(tetrahydro-pyran-4-ylamino)-1H-indol-2-yl]-4,5-dihydro-thiazol-4-yl}-propan-1-ol]
38	O=C1CN(CC[C@@H]2CSC(c3cc4cc(F)cc(NC5CCOCC5)c4[nH]3)=N2)CCN1 [Example 139, 4-(2-{(R)-2-[5-fluoro-7-(tetrahydro-pyran-4-ylamino)-1H-indol-2-yl]-4,5-dihydro-thiazol-4-yl}-ethyl)-piperazin-2-one]
16	Fc1cc(NC2CCCC2)c2[nH]c(C3=N[C@H](CCN4CCCC4)CS3)cc2c1 [Example 128, cyclopentyl-{5-fluoro-2-[(R)-4-(2-pyrrolidin-1-yl-ethyl)-4,5-dihydro-thiazol-2-yl]-1H-indol-7-yl}-amine]
14	O=C(O)CC[C@@H]1CSC(c2cc3cc(Cl)cc(NC4CCOCC4)c3[nH]2)=N1 [Example 151, 3-{(R)-2-[5-chloro-7-(tetrahydro-pyran-4-ylamino)-1H-indol-2-yl]-4,5-dihydro-thiazol-4-yl}-propionic acid]
24	COCC[C@@H]1CSC(c2cc3cccc(NC4CCCC4)c3[nH]2)=N1 [Example 141, cyclopentyl-{2-[(R)-4-(2-methoxy-ethyl)-4,5-dihydro-thiazol-2-yl]-1H-indol-7-yl}-amine]
14	CN1CCN(C(=O)CC[C@@H]2CSC(c3cc4cc(Cl)cc(NC5CCCC5)c4[nH]3)=N2)CC1 [Example 154, 3-[(R)-2-(5-chloro-7-cyclopentylamino-1H-indol-2-yl)-4,5-dihydro-thiazol-4-yl]-1-(4-methyl-piperazin-1-yl)-propan-1-one]
10	O=C(O)CC[C@@H]1CSC(c2cc3cc(F)cc(NC4CCCC4)c3[nH]2)=N1 [Example 161, 3-[(R)-2-(7-cyclopentylamino-5-fluoro-1H-indol-2-yl)-4,5-dihydro-thiazol-4-yl]-propionic acid]
12	O=C(O)CC[C@@H]1CSC(c2cc3cc(Cl)cc(NC4CCCC4)c3[nH]2)=N1 [Example 149, 3-[(R)-2-(5-chloro-7-cyclopentylamino-1H-indol-2-yl)-4,5-dihydro-thiazol-4-yl]-propionic acid]

From patent US8309586B2, “Glucokinase activators and pharmaceutical compositions containing the same as an active ingredient” (LG Life Sciences Ltd., priority 2007, dated 2012)
